Experimental data from ChEMBL document CHEMBL1125278, “Novel cerebroprotective agents with central nervous system stimulating activity. 2. Synthesis and pharmacology of the 1-(acylamino)-7-hydroxyindan derivatives” (1991).

Tests used:
Format in all cases: functional
Mus musculus [1] = assay: Spontaneous movement (SMT) in seconds, was measured after oral administration of 30 mg/kg in mice to test for promoting effects on recovery from coma.
Mus musculus [2] = assay: Antihypoxic effect tested by the ratio of survival time (SVT) of test mice to that of control group, dosed orally 30 mg/kg; settings: route oral
Mus musculus [3] = assay: Time of recovery of righting reflux (RRT) in seconds was measured after oral administration of 30 mg/kg in mice for the promotional effect on recovery from coma.
Mus musculus [4] = assay: Antihypoxic effect tested by the ratio of survival time (SVT) of test mice to that of control group, dosed intraperitoneally at 30 mg/kg; settings: route intraperitoneal

## COc1cccc(N2CCN(CC(=O)NC3CCc4c(C)cc(C)c(O)c43)CC2)c1 (configuration not stated)
Mus musculus [1]
  SMT: 54.7 s
Mus musculus [2]
  SVT: 77.2%
Mus musculus [3]
  RRT: 64.2 s

## COc1ccccc1N1CCN(CC(=O)NC2c3c(O)c(C)cc(C)c3CC2(C)C)CC1 (configuration not stated)
Mus musculus [1]
  SMT: 117.3 s
Mus musculus [2]
  SVT: 94.4%
Mus musculus [3]
  RRT: 97.2 s

## COc1cccc(N2CCN(CC(=O)NC3c4c(c(C)cc(C)c4OC)CC3(C)C)CC2)c1 (configuration not stated)
Mus musculus [1]
  SMT: 61.8 s
Mus musculus [2]
  SVT: 93.4%
Mus musculus [3]
  RRT: 72.6 s

## Cc1ccc(Cl)cc1N1CCN(CC(=O)NC2c3c(O)c(C)cc(C)c3CC2(C)C)CC1 (configuration not stated)
Mus musculus [1]
  SMT: 74 s
Mus musculus [2]
  SVT: 103.2%
Mus musculus [3]
  RRT: 91.7 s

## Cc1cc(C)c2c(c1O)C(NC(=O)CN1CCN(c3cc(Cl)cc(Cl)c3)CC1)C(C)(C)C2 (configuration not stated)
Mus musculus [1]
  SMT: 71.1 s
Mus musculus [2]
  SVT: 106.4%
Mus musculus [3]
  RRT: 76.1 s

## CCOc1ccccc1N1CCN(CC(=O)NC2c3c(O)c(C)cc(C)c3CC2(C)C)CC1 (configuration not stated)
Mus musculus [1]
  SMT: 71.8 s
Mus musculus [2]
  SVT: 130.4%
Mus musculus [3]
  RRT: 90.3 s

## Cc1cc(C)c2c(c1O)C(N)C(c1ccccc1)C2 (configuration not stated)
Mus musculus [1]
  SMT: 28.9 s
Mus musculus [2]
  SVT: 114.1%
Mus musculus [3]
  RRT: 34.3 s
Mus musculus [4]
  SVT: 185.7%

## Cc1ccccc1C1Cc2c(C)cc(C)c(O)c2C1NC(=O)CN1CCN(c2cccc(Cl)c2)CC1 (configuration not stated)
Mus musculus [1]
  SMT: 66 s
Mus musculus [2]
  SVT: 123.7%
Mus musculus [3]
  RRT: 75.1 s

## Cc1cc(C)c2c(c1O)C(NC(=O)CN1CCN(c3ccc([N+](=O)[O-])cc3)CC1)C(C)(C)C2 (configuration not stated)
Mus musculus [1]
  SMT: 90.6 s
Mus musculus [2]
  SVT: 107.9%
Mus musculus [3]
  RRT: 99.5 s

## COc1cccc(N2CCN(CCNC3c4c(O)c(C)cc(C)c4CC3(C)C)CC2)c1 (configuration not stated)
Mus musculus [1]
  SMT: 112.1 s
Mus musculus [3]
  RRT: 110 s
Mus musculus [4]
  SVT: 120.8%

## COc1ccc(N2CCN(CC(=O)NC3c4c(O)c(C)cc(C)c4CC3(C)C)CC2)cc1 (configuration not stated)
Mus musculus [1]
  SMT: 63.1 s
Mus musculus [2]
  SVT: 100.6%
Mus musculus [3]
  RRT: 82.3 s

## Cc1cc(C)c2c(c1O)C(NC(=O)CN1CCCC1)C(C)(C)C2 (configuration not stated)
Mus musculus [1]
  SMT: 66.4 s
Mus musculus [3]
  RRT: 85.8 s
Mus musculus [4]
  SVT: 134.2%

## Cc1cc(C)c2c(c1O)C(NC(=O)CN1CCN(c3cccc(Cl)c3)CC1)C(c1ccc(Cl)cc1)C2 (configuration not stated)
Mus musculus [1]
  SMT: 99.4 s
Mus musculus [2]
  SVT: 81.3%
Mus musculus [3]
  RRT: 98 s

## Cc1cc(C)c2c(c1O)C(NC(=O)CN1CCN(c3cccc(Cl)c3Cl)CC1)C(C)(C)C2 (configuration not stated)
Mus musculus [1]
  SMT: 126.6 s
Mus musculus [2]
  SVT: 94.6%
Mus musculus [3]
  RRT: 99.2 s

## Cc1cc(C)c2c(c1O)C(NC(=O)CN1CCN(c3ccc(Cl)c(Cl)c3)CC1)C(C)(C)C2 (configuration not stated)
Mus musculus [1]
  SMT: 108.2 s
Mus musculus [2]
  SVT: 100.1%
Mus musculus [3]
  RRT: 93.2 s

## COc1cccc(N2CCN(CC(=O)NC3c4c(O)c(C)cc(C)c4CC3c3ccc(Cl)cc3)CC2)c1 (configuration not stated)
Mus musculus [1]
  SMT: 94.3 s
Mus musculus [2]
  SVT: 91.7%
Mus musculus [3]
  RRT: 80.1 s

## COc1cccc(N2CCN(CC(=O)NC3c4c(O)ccc(C)c4CC3(C)C)CC2)c1 (configuration not stated)
Mus musculus [1]
  SMT: 64.7 s
Mus musculus [2]
  SVT: 97.2%
Mus musculus [3]
  RRT: 62.9 s

## Cc1cc(C)c2c(c1O)C(NC(=O)CN1CCOCC1)C(C)(C)C2 (configuration not stated)
Mus musculus [1]
  SMT: 92.2 s
Mus musculus [3]
  RRT: 106.9 s
Mus musculus [4]
  SVT: 104.3%

## Cc1cc(C)c2c(c1O)C(NC(=O)CCN1CCN(c3cccc(Cl)c3)CC1)C(C)(C)C2 (configuration not stated)
Mus musculus [1]
  SMT: 74 s
Mus musculus [3]
  RRT: 95.4 s
Mus musculus [4]
  SVT: 79.5%

## COc1cccc(N2CCN(CC(=O)NC3c4c(O)c(C)cc(C)c4CC3Cc3ccccc3)CC2)c1 (configuration not stated)
Mus musculus [2]
  SVT: 123.1%

## Cc1cc(C)c(N2CCN(CC(=O)NC3c4c(O)c(C)cc(C)c4CC3(C)C)CC2)c(C)c1 (configuration not stated)
Mus musculus [1]
  SMT: 84 s
Mus musculus [2]
  SVT: 100.3%
Mus musculus [3]
  RRT: 87.6 s

## Cc1cc(C)c2c(c1O)C(NCC(=O)N1CCN(c3cccc(Cl)c3)CC1)C(C)(C)C2 (configuration not stated)
Mus musculus [1]
  SMT: 95.2 s
Mus musculus [3]
  RRT: 116.3 s
Mus musculus [4]
  SVT: 146.8%

## Cc1cc(C)c2c(c1O)C(NC(=O)CN1CCN(c3ccccc3Cl)CC1)C(C)(C)C2 (configuration not stated)
Mus musculus [1]
  SMT: 77.2 s
Mus musculus [2]
  SVT: 117.3%
Mus musculus [3]
  RRT: 86.5 s

## Cc1cc(C)c2c(c1O)C(NCCN1CCN(c3cccc(Cl)c3)CC1)C(C)(C)C2 (configuration not stated)
Mus musculus [1]
  SMT: 59.9 s
Mus musculus [3]
  RRT: 64.8 s
Mus musculus [4]
  SVT: 141.3%

## Cc1cc(C)c2c(c1O)C(NC(=O)CN1CCN(c3ccccc3F)CC1)C(C)(C)C2 (configuration not stated)
Mus musculus [1]
  SMT: 123.8 s
Mus musculus [2]
  SVT: 99.9%
Mus musculus [3]
  RRT: 89 s

## COc1cccc(N2CCN(CC(=O)NC3c4c(O)c(C)cc(C)c4CC3c3ccccc3)CC2)c1 (configuration not stated)
Mus musculus [1]
  SMT: 80.6 s
Mus musculus [2]
  SVT: 78.3%
Mus musculus [3]
  RRT: 82 s

## Cc1cc(C)c2c(c1O)C(NC(=O)CN1CCN(c3cccc(F)c3)CC1)C(C)(C)C2 (configuration not stated)
Mus musculus [1]
  SMT: 72.3 s
Mus musculus [2]
  SVT: 122.7%
Mus musculus [3]
  RRT: 82.8 s

## COc1cccc(N2CCN(CCC(=O)NC3c4c(O)c(C)cc(C)c4CC3(C)C)CC2)c1 (configuration not stated)
Mus musculus [1]
  SMT: 92.4 s
Mus musculus [2]
  SVT: 91.8%
Mus musculus [3]
  RRT: 98 s

## Cc1cc(C)c2c(c1O)C(NC(=O)CN1CCN(c3cccc(C(F)(F)F)c3)CC1)C(C)(C)C2 (configuration not stated)
Mus musculus [1]
  SMT: 83.7 s
Mus musculus [2]
  SVT: 107.8%
Mus musculus [3]
  RRT: 89.5 s

## Cc1cc(C)c2c(c1O)C(NC(=O)CN1CCN(c3ccc(F)cc3)CC1)C(C)(C)C2 (configuration not stated)
Mus musculus [1]
  SMT: 121.4 s
Mus musculus [2]
  SVT: 96.2%
Mus musculus [3]
  RRT: 110.5 s

## Cc1cc(C)c2c(c1O)C(NC(=O)CN1CCCC1=O)C(C)(C)C2 (configuration not stated)
Mus musculus [1]
  SMT: 88.8 s
Mus musculus [3]
  RRT: 89.2 s
Mus musculus [4]
  SVT: 135.3%

## CCCc1cc(C)c2c(c1O)C(NC(=O)CN1CCN(c3cccc(OC)c3)CC1)C(C)(C)C2 (configuration not stated)
Mus musculus [1]
  SMT: 107.2 s
Mus musculus [2]
  SVT: 95%
Mus musculus [3]
  RRT: 114.6 s

## Cc1cc(C)c2c(c1O)C(NC(=O)CN1CCCC1C(=O)O)C(C)(C)C2 (configuration not stated)
Mus musculus [1]
  SMT: 150.3 s
Mus musculus [2]
  SVT: 92.3%
Mus musculus [3]
  RRT: 103.3 s

## Cc1ccc(C(=O)NC2CCc3c(C)cc(C)c(O)c32)cc1 (configuration not stated)
Mus musculus [4]
  SVT: 68.8%

## COc1cccc(N2CCN(C(=O)CNC3c4c(O)c(C)cc(C)c4CC3(C)C)CC2)c1 (configuration not stated)
Mus musculus [1]
  SMT: 111 s
Mus musculus [3]
  RRT: 84 s
Mus musculus [4]
  SVT: 97.7%

## Cc1cc(C)c2c(c1O)C(NC(=O)CN1CCN(c3cc(Cl)ccc3Cl)CC1)C(C)(C)C2 (configuration not stated)
Mus musculus [1]
  SMT: 69.4 s
Mus musculus [2]
  SVT: 100%
Mus musculus [3]
  RRT: 73.6 s

## Cc1ccc(N2CCN(CC(=O)NC3c4c(O)c(C)cc(C)c4CC3(C)C)CC2)cc1Cl (configuration not stated)
Mus musculus [1]
  SMT: 117.7 s
Mus musculus [2]
  SVT: 90.5%
Mus musculus [3]
  RRT: 103.9 s

## Cc1cc(C)c2c(c1O)C(NC(=O)CN1CCCCC1)C(C)(C)C2 (configuration not stated)
Mus musculus [1]
  SMT: 84.2 s
Mus musculus [3]
  RRT: 100.7 s
Mus musculus [4]
  SVT: 112.7%

## Cc1cc(C)c2c(c1O)C(NC(=O)Cn1ccnc1)C(C)(C)C2 (configuration not stated)
Mus musculus [1]
  SMT: 66.4 s
Mus musculus [2]
  SVT: 71.8%
Mus musculus [3]
  RRT: 76.8 s

## Cc1cc(C)c2c(c1O)C(NC(=O)CN1CCN(c3cccc(Br)c3)CC1)C(C)(C)C2 (configuration not stated)
Mus musculus [1]
  SMT: 91 s
Mus musculus [2]
  SVT: 83.2%
Mus musculus [3]
  RRT: 81.8 s

## Cc1cccc(N2CCN(CC(=O)NC3CCc4c(C)cc(C)c(O)c43)CC2)c1C (configuration not stated)
Mus musculus [4]
  SVT: 134.3%

## CCC(C)c1cc(C)c2c(c1O)C(NC(=O)CN1CCN(c3cccc(Cl)c3)CC1)C(C)(C)C2 (configuration not stated)
Mus musculus [1]
  SMT: 80.3 s
Mus musculus [3]
  RRT: 99.4 s
Mus musculus [4]
  SVT: 147.7%

## Cc1cc(C)c2c(c1O)C(NC(=O)CN1CCSCC1)C(C)(C)C2 (configuration not stated)
Mus musculus [1]
  SMT: 119.9 s
Mus musculus [3]
  RRT: 110.8 s
Mus musculus [4]
  SVT: 100.8%

## COc1ccc(N2CCN(CC(=O)NC3c4c(O)c(C)cc(C)c4CC3(C)C)CC2)cc1OC (configuration not stated)
Mus musculus [1]
  SMT: 81 s
Mus musculus [2]
  SVT: 85.7%
Mus musculus [3]
  RRT: 59.5 s
